Assay results as given in patent US7998999B2, “Cyclohexyl substituted pyrrolidinones as inhibitors of 11-beta-hydroxysteroid dehydrogenase 1” (Eli Lilly and Company, priority 2006, dated 2011).

Tests used:
[1] = biological target: T1, 11β-HSD1 in primary human aortic smooth muscle cells (AoSMC) (Homo sapiens, UniProt P28845); test: Human Aortic Smooth Muscle Cell Assay (cortisone to cortisol conversion); format: cell-based; conditions: AoSMC induced with hTNFα, 10 μM cortisone, cortisol by time resolved immunoassay
T1 construct: containing 12 ng/mL hTNFα to induce expression of 11β-HSD1; endogenous in cells; host or cells: primary human aortic smooth muscle cells (AoSMC), induced with hTNFα
T1 sequence (P28845 whole entry): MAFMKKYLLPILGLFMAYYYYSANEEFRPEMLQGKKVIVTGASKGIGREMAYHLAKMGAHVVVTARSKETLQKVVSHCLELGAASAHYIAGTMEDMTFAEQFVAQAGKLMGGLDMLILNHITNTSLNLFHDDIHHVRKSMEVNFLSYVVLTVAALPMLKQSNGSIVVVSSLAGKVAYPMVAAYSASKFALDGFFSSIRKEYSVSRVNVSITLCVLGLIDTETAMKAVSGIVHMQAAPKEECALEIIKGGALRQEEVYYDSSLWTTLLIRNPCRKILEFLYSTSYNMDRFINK
Description: Human Aortic Smooth Muscle Cell Assay
Primary human aortic smooth muscle cells (AoSMC) are cultured in 5% FBS growth medium to a passage number of 6, then pelleted by centrifugation and resuspended at a density of 9×10^4 cells/mL in 0.5% FBS assay medium containing 12 ng/mL hTNFα to induce expression of 11β-HSD1. Cells are seeded into 96-well tissue culture assay plates at 100 μL/well (9×10^3 cells/well) and incubated for 48 hours at 37° C., 5% CO2. Following induction, cells are incubated for 4 hours at 37° C., 5% CO2 in assay medium containing test compounds then treated with 10 μL/well of 10 μM cortisone solubilized in assay medium, and incubated for 16 hours at 37° C., 5% CO2. Medium from each well is transferred to a plate for subsequent analysis of cortisol using a competitive fluorescence resonance time resolved immunoassay. In solution, an allophycocyanin (APC)-cortisol conjugate and free cortisol analyte compete for binding to a mouse anti-cortisol antibody/Europium (Eu)-anti mouse IgG complex. Higher levels of free cortisol result in diminishing energy transfer from the Europium-IgG to the APC-cortisol complex resulting in less APC fluorescence. Fluorescent intensities for Europium and APC are measured using a LJL Analyst AD. Europium and APC excitation is measured using 360 nm excitation and 615 nm and 650 nm emission filters respectively. Time resolved parameters for Europium were 1000 μs integration time with a 200 μs delay. APC parameters are set at 150 μs integration time with a 50 μs delay. Fluorescent intensities measured for APC are modified by dividing by the Eu fluorescence (APC/Eu). This ratio is then used to determine the unknown cortisol concentration by interpolation using a cortisol standard curve fitted with a 4-parameter logistic equation. These concentrations are then used to determine compound activity by plotting concentration versus % inhibition, fitting with a 4-parameter curve and reporting the IC50.

[2] = biological target: recombinant human 11β-HSD type 1 enzyme (Homo sapiens, UniProt P28845); test: 11β-HSD Type 1 Enzyme Assay (NADPH fluorescence); format: biochemical; conditions: three hour incubation at room temperature, read-out: Human 11-βHSD1 IC50
Sequence of recombinant human 11β-HSD type 1 enzyme (P28845 whole entry): as above
Description: 11β-HSD Type 1 Enzyme Assay
Human 11β-HSD type 1 activity is measured by assaying NADPH production by fluorescence assay. Solid compounds are dissolved in DMSO to a concentration of 10 mM. Twenty microliters of each are then transferred to a column of a 96-well polypropylene Nunc plate where they are further diluted 50-fold followed by subsequent two-fold titration, ten times across the plate with additional DMSO using a Tecan Genesis 200 automated system. Plates are then transferred to a Tecan Freedom 200 system with an attached Tecan Temo 96-well head and an Ultra 384 plate reader. Reagents are supplied in 96-well polypropylene Nunc plates and are dispensed individually into black 96-well Molecular Devices High Efficiency assay plates (40 μL/well capacity) in the following fashion: 9 μL/well of substrate (2.22 mM NADP, 55.5 μM Cortisol, 10 mM Tris, 0.25% Prionex, 0.1% Triton ×100), 3 μL/well of water to compound wells or 3 μL to control and standard wells, 6 μL/well recombinant human 11β-HSD type 1 enzyme, 2 μL/well of compound dilutions. For ultimate calculation of percent inhibition, a series of wells are added that represent assay minimum and maximum: one set containing substrate with 667 μM carbenoxolone (background), and another set containing substrate and enzyme without compound (maximum signal). Final DMSO concentration is 0.5% for all compounds, controls and standards. Plates are then placed on a shaker by the robotic arm of the Tecan for 15 seconds before being covered and stacked for a three hour incubation period at room temperature. Upon completion of this incubation, the Tecan robotic arm removes each plate individually from the stacker and places them in position for addition of 5 μL/well of a 250 μM carbenoxolone solution to stop the enzymatic reaction. Plates are then shaken once more for 15 seconds then placed into an Ultra 384 microplate reader (355EX/460EM) for detection of NADPH fluorescence.

Compound | IC50 [1] [nM] | IC50 [2] [nM]
O=C1[C@H](Cc2c(Cl)cc(-c3ccc(F)cc3)cc2Cl)CCN1C1CCC(F)(F)CC1 [Example 3, (R)-3-(3,5-Dichloro-4′-fluoro-biphenyl-4-ylmethyl)-1-(4,4-difluoro-cyclohexyl)-pyrrolidin-2-one] | 9.6 | 364
Cn1cc(-c2cc(Cl)c(C[C@@H]3CCN(C4CCC(F)(F)CC4)C3=O)c(Cl)c2)cn1 [Example 6, (R)-3-[2,6-Dichloro-4-(1-methyl-1H-pyrazol-4-yl)-benzyl]-1-(4,4-difluoro-cyclohexyl)-pyrrolidin-2-one] | 9.1 | 302
3-(4-Bromo-2-chloro-benzyl)-trans-1-(4-fluoro-cyclohexyl)-pyrrolidin-2-one [Example 10] | 33 | 250

The next compounds have a lower IC50 [1] than those just listed; values first:

IC50 [1] [nM] | IC50 [2] [nM] | Compound
3.9 | 260 | O=C1C(Cc2c(Cl)cc(-c3cccnc3)cc2Cl)CCN1[C@H]1CC[C@@H](F)CC1 (stereo partly drawn) [Example 12, 3-(2,6-Dichloro-4-pyridin-3-yl-benzyl)-cis-1-(4-fluoro-cyclohexyl)-pyrrolidin-2-one]
7.5 | 446 | O=C1C(Cc2ccc(Br)cc2Cl)CCN1[C@H]1CC[C@@H](F)CC1 (stereo partly drawn) [Example 11, 3-(4-Bromo-2-chloro-benzyl)-cis-1-(4-fluoro-cyclohexyl)-pyrrolidin-2-one]
